Experimental data reported in PubChem BioAssay (NCI).
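These data come from cells grown in 96-well plates and exposed to compound for 48 hours at five concentrations. GI50: concentration for 50% inhibition of growth. Definition used: TGI = concentration required for complete inhibition of growth.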

Key:
Assay in all cases: NCI anticancer screen, dose series, 48 h
HOP-62 NSCLC = test system: HOP-62 NSCLC
UACC-257 melanoma = test system: UACC-257 melanoma
SNB-75 CNS = test system: SNB-75 CNS
CAKI-1 renal = test system: CAKI-1 renal
COLO 205 colon = test system: COLO 205 colon
SW-620 colon = test system: SW-620 colon
OVCAR-5 ovarian = test system: OVCAR-5 ovarian
TK-10 renal = test system: TK-10 renal
HS 578T breast = test system: HS 578T breast
SR leukemia = test system: SR leukemia

Row | Compound | TGI (HOP-62 NSCLC) | TGI (UACC-257 melanoma) | TGI (SNB-75 CNS) | TGI (CAKI-1 renal) | TGI (COLO 205 colon) | TGI (SW-620 colon) | TGI (OVCAR-5 ovarian) | TGI (TK-10 renal) | GI50 (HOP-62 NSCLC) | GI50 (UACC-257 melanoma) | GI50 (HS 578T breast) | TGI (HS 578T breast) | GI50 (SNB-75 CNS) | GI50 (CAKI-1 renal) | GI50 (COLO 205 colon) | GI50 (SW-620 colon) | GI50 (OVCAR-5 ovarian) | GI50 (TK-10 renal) | TGI (SR leukemia) | GI50 (SR leukemia)
1 | CCCCCCCCCCCCCCC(C)CCC(=O)O (stereo not given) | > 100 µM | > 100 µM | > 100 µM | > 100 µM | > 100 µM | > 100 µM | > 100 µM | > 100 µM |  |  |  |  |  |  |  |  |  |  |  | 
2 | COc1ccc(Cc2nc3cc(OC)c(OC)cc3c(=O)[nH]2)cc1 | > 81.5 µM | 32.1 µM | 40.1 µM | > 93.4 µM | 6.93 µM | > 63.5 µM | > 74.1 µM | 54 µM | 8.69 µM | 6.42 µM | 9.98 µM | 99.2 µM | 9.79 µM | 6.64 µM | 2.33 µM | 3.32 µM | 3.74 µM | 11.8 µM |  | 
3 | CN(C)c1ccc(O[Si](Oc2ccc(N(C)C)cc2)(Oc2ccc(N(C)C)cc2)Oc2ccc(N(C)C)cc2)cc1 | > 100 µM | > 100 µM | > 100 µM | > 100 µM | > 100 µM | > 100 µM | > 100 µM | > 100 µM |  |  |  |  |  |  |  |  |  |  | > 100 µM | 
4 | c1ccc2c3c([nH]c2c1)C1C2CCCCN2C(c2ccncc2)N1CC3 (stereo not given) | > 100 µM | > 100 µM | 89 µM | > 100 µM | > 100 µM | > 100 µM | > 100 µM |  |  |  |  |  |  |  |  |  |  |  | > 100 µM | 
5 | COc1ccc2c(c1)[n+](=O)c(C(C)=O)c(C)n2[O-] | > 100 µM | > 100 µM |  | > 100 µM | > 100 µM | > 100 µM | > 100 µM | > 100 µM |  |  |  |  |  |  |  |  |  |  |  | 
6 | COC(=O)c1ccc2[nH]c(O)c(C(=Nc3ccc(N(C)C(=O)CN4CCN(C)CC4)cc3)c3ccccc3)c2c1 | 13 µM | 5 µM |  | 1.25 µM | 2.45 µM | 4.27 µM | 6.8 µM | 17 µM | 2.1 µM | 2.24 µM | 0.266 µM | 4.57 µM |  | 0.21 µM | 0.7 µM | 0.795 µM | 2.63 µM | 3.05 µM | 10.2 µM | 0.224 µM
7 | CN(C)c1ccc(N=C2C=CC(=C(C#N)C#N)c3ccccc32)cc1 | 15.3 µM | 10.9 µM | 5.71 µM | 12.7 µM | 0.199 µM | 3.65 µM | 10.6 µM | 16.4 µM |  |  |  |  |  |  |  |  |  |  | 48.1 µM | 
8 | O=C1CCS/C(=N/S(=O)(=O)c2ccc(N3N=C4c5ccccc5CC4C3c3cccs3)cc2)N1Cc1ccccc1 (stereo not given) | 34 µM | 50.7 µM | 78.7 µM | 54.3 µM | > 100 µM | 84.6 µM | 44.9 µM | 37.6 µM | 18.6 µM | 24.2 µM | 23.5 µM | 67.2 µM | 30.2 µM | 24 µM | 36.8 µM | 24 µM | 22.4 µM | 17.7 µM |  | 
9 | [Cl-].[Gd+3].[O-]/N=C(\c1ccccc1)c1ccccn1.[O-]/N=C(\c1ccccc1)c1ccccn1.[O-]/N=C(\c1ccccc1)c1ccccn1 | > 100 µM | > 100 µM | 71.9 µM | > 100 µM | > 100 µM | > 100 µM | > 100 µM | > 100 µM | 41.8 µM | 86.5 µM |  |  | 17.5 µM | 42.3 µM | 47.2 µM | 41.7 µM | 67.7 µM | 34.9 µM |  | 
10 | CC(=O)[O-].[Mn+3].[O-]c1ccc(Cl)cc1C=NCCN=Cc1cc(Cl)ccc1[O-] |  | > 100 µM | > 100 µM |  |  |  |  | > 100 µM |  | > 100 µM |  |  | > 100 µM |  |  |  |  | > 100 µM |  | 
11 | Cc1nc(-n2nc(-c3ccccc3)cc2-c2ccccc2)sc1C(=O)/C=C/c1ccccc1 | > 100 µM | > 100 µM | 89.7 µM | > 100 µM | > 100 µM | > 100 µM | > 100 µM | > 100 µM |  |  |  |  |  |  |  |  |  |  |  | 
12 | NNC(=O)N/N=C1\CN(c2ccc(Cl)cc2Cl)C(=O)C(=O)C1c1nc2ccccc2o1 (stereo not given) | > 100 µM | > 100 µM | > 100 µM | > 100 µM | > 100 µM | > 100 µM | > 100 µM |  |  |  |  |  |  |  |  |  |  |  | > 100 µM | 
13 | O=C1CNN=C(Cn2nc(-c3ccccc3)c3ccccc3c2=O)N1 | > 100 µM | > 100 µM | > 100 µM |  | > 100 µM | > 100 µM | > 100 µM | > 100 µM |  |  |  |  |  |  |  |  |  |  | > 100 µM | 
14 | COc1cc2cc3c(c(O)c2c(O)c1-c1c(OC)cc2cc4c(c(O)c2c1O)C(=O)O[C@H](C)C4)C(=O)O[C@H](C)C3 | 62.7 µM | 48.8 µM |  | 61.2 µM | 78.7 µM | > 100 µM | > 100 µM | > 100 µM | 26.9 µM | 22.9 µM |  |  |  | 23.9 µM | 27.2 µM | 77.1 µM | 94.2 µM | 60.3 µM | > 100 µM | 70.6 µM
15 | COc1ccc(-c2cc(-c3ccco3)c(C#N)c(=O)[nH]2)cc1 | 72.1 µM | > 100 µM | > 100 µM |  | > 100 µM | > 100 µM | > 100 µM | > 100 µM |  |  |  |  |  |  |  |  |  |  |  | 
16 | O=C(C(=O)c1cc(Br)ccc1O)c1cc(Br)ccc1O | 34.9 µM | 8.43 µM | 29.4 µM | 6.05 µM | 44.5 µM |  | 74.8 µM | 17.9 µM | 6.51 µM | 2.21 µM |  |  | 3.26 µM | 2.16 µM | 18.6 µM |  | 22.2 µM | 3.44 µM | 53.2 µM | 3.15 µM
17 | COC(=O)c1sc(=NC(=S)N2CCCCC2)sc1C(=O)OC | > 100 µM | > 100 µM | > 100 µM | > 100 µM | > 100 µM | > 100 µM |  | > 100 µM |  |  |  |  |  |  |  |  |  |  | > 100 µM | 
18 | Nc1ccc(C(=O)/C=C/c2ccccc2O)cc1 | > 100 µM | > 100 µM | > 100 µM | > 100 µM | > 100 µM | > 100 µM | > 100 µM | > 100 µM |  |  |  |  |  |  |  |  |  |  | > 100 µM | 
19 | COc1cc(CCc2ccc(OC(C)=O)cc2)cc(OC)c1OC | > 100 µM | > 100 µM | > 100 µM | > 100 µM | > 100 µM | > 100 µM | > 100 µM | > 100 µM |  |  |  |  |  |  |  |  |  |  |  | 
